# Laboratory results published in patent publication US20260217708A1, “FUSED BENZAZEPINE DERIVATIVES FOR USE IN THE TREATMENT OF CANCER AND EPILEPSY” (UCB BIOPHARMA SRL, priority 2023, published 2026).
# Columns and labels:
# [1] = molecular target: T1, system Xc^− (Homo sapiens, UniProt Q9UPY5); assay: Cystine-induced glutamate release assay; format: cell-based; design: endogenous in cells; host or cells: H4 cells; settings: H4 cells, sodium-free HEPES buffer, 50 μM L-Cystine, 2 hours, Amplex Red glutamate readout; read-out: pIC50 Cystine-induced glutamate release assay (converted)
# T1 sequence (Q9UPY5 1-501): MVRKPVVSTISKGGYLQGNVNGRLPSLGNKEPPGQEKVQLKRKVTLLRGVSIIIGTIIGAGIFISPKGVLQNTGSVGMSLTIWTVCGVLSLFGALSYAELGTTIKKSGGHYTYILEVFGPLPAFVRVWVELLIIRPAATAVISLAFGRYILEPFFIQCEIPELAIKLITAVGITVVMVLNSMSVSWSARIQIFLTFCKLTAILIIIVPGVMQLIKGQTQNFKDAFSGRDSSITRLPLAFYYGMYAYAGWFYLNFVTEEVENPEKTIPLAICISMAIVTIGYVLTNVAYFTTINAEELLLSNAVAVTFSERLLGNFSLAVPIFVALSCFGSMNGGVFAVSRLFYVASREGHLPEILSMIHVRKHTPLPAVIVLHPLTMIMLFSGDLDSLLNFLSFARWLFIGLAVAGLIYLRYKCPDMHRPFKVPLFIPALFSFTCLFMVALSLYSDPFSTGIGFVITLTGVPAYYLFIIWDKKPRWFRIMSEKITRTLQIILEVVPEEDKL
# T1 sequence (P08195 1-529 partner): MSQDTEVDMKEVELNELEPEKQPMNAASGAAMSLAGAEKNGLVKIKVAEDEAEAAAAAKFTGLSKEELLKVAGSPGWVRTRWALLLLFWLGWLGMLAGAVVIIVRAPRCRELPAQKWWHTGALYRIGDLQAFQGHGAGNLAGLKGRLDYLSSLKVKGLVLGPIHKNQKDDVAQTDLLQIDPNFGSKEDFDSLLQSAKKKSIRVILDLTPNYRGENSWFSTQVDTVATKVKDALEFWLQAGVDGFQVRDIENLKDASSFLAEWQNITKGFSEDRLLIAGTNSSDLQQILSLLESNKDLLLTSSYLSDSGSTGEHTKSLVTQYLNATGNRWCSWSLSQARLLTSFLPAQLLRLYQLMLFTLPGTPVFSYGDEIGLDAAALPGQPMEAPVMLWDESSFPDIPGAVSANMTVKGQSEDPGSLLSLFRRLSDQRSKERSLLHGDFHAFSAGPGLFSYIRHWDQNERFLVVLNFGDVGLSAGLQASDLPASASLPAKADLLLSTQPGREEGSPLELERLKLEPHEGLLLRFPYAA
# How it was run: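 H4 cells in sodium-free HEPES buffer (pH 7.4), 2 days after plating; glutamate release induced with 50 μM L-cystine plus compound (1% DMSO), 2 h at 37 °C. Supernatant glutamate measured by Amplex Red fluorescence; IC50/pIC50 derived between 1% DMSO and 50 μM erastin controls.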
# [2] = molecular target: T1, system Xc^−; assay: [^14C]L-Cystine uptake assay; format: cell-based; design: endogenous in cells; host or cells: H4 cells; settings: H4 cells, sodium-free HEPES buffer, 0.5 μM L-[14C]Cystine and 4.5 μM L-Cystine, 1 hour at 37° C.; read-out: pIC50 [^14C] L-Cystine uptake assay (converted)
# How it was run: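 H4 cells at 5×10^4 cells/well in sodium-free HEPES buffer were preincubated 15 min with compounds (1% DMSO). Uptake of 0.5 μM [14C]L-cystine plus 4.5 μM unlabelled L-cystine ran 1 hour at 37° C on scintillating plates. IC50 was set between 1% DMSO and 50 μM Erastin controls and expressed as pIC50.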
SMILES,IC50 [1] [nM],IC50 [2] [nM]
"Cc1cc2c(c(Cl)n1)-c1cccnc1C(C)C(=O)N2CC(=O)Nc1ccc(C(F)F)cc1 (single isomer, unassigned) [#116, 2-[3-chloro-5,10-dimethyl-9-oxo-4,8,12-triazatricyclo[9.4.0.0^2,7]pentadeca-1(11),2(7),3,5,12,14-hexaen-8-yl]-N-[4-(difluoromethyl)phenyl]acetamide]",< 15.8,< 15.8
"O=C(CN1C(=O)Cc2ccccc2-c2cnc(N3CC(F)(F)C3)cc21)Nc1ccc(C(F)(F)F)cc1 [#47, 2-[3-(3,3-difluoroazetidin-1-v)-6-oxo-7H-pyrido[4,3-d][3]benzazepin-5-yl]-N-[4-(trifluoromethyl)phenyl]acetamide]",39.8 to 100,15.8 to 39.8
"Cc1cc2c(c(F)n1)-c1cncc(F)c1CC(=O)N2CC(=O)Nc1ccc(C(F)(F)F)cc1 [#212, 2-(3,12-difluoro-5-methyl-9-oxo-4,8,14-triazatricyclo[9.4.0.0^2,7]pentadeca-1(11),2(7),3,5,12,14-hexaen-8-yl)-N-[4-(trifluoromethyl)phenyl]acetamide]",100 to 501,15.8 to 39.8
"CNc1cc2c(c(Cl)n1)-c1cccnc1CC(=O)N2CC(=O)Nc1ccc(C(F)(F)F)cc1 [#169, 2-[3-chloro-5-(methylamino)-9-oxo-4,8,12-triazatricyclo[9.4.0.0^2,7]pentadeca-1(11),2(7),3,5,12,14-hexaen-8-yl]-N-[4-(trifluoromethyl)phenyl]acetamide]",100 to 501,15.8 to 39.8
"Cc1cc2c(cc1C)N(CC(=O)Nc1ccc(C(F)(F)F)cc1)C(=O)Cc1ccncc1-2 [#24, 2-(9,10-dimethyl-6-oxo-5H-pyrido[4,3-d][1]benzazepin-7-yl)-N-[4-(trifluoromethyl)phenyl]acetamide]",100 to 501,15.8 to 39.8
"Cc1cc2c(c(C)n1)-c1cccnc1CC(=O)N2CC(=O)Nc1ccc(C(F)(F)F)cc1 [#57, 2-(3,5-dimethyl-9-oxo-4,8,12-triazatricyclo[9.4.0.0^2,7]pentadeca-1(11),2(7),3,5,12,14-hexaen-8-yl)-N-[4-(trifluoromethyl)phenyl]acetamide]",15.8 to 39.8,15.8 to 39.8
"Cc1cc2c(cn1)-c1ccnn1CC(=O)N2CC(=O)Nc1ccc(C(F)(F)F)cc1 [#48, 2-(12-methyl-8-oxo-5,6,9,13-tetrazatricyclo[8.4.0.0^2,6]tetradeca-1(10),2,4,11,13-pentaen-9-yl)-N-[4-(trifluoromethyl)phenyl]acetamide]",100 to 501,100 to 501
"Cc1cc2c(c(Cl)n1)-c1cccnc1C(C)C(=O)N2CC(=O)Nc1ccc(Cl)c(F)c1 (single isomer, unassigned) [#117, 2-[3-chloro-5,10-dimethyl-9-oxo-4,8,12-triazatricyclo[9.4.0.0^2,7]pentadeca-1(15),2(7),3,5,11,13-hexaen-8-yl]-N-(4-chloro-3-fluorophenyl)acetamide]",< 15.8,< 15.8
"Cc1cc2c(c(=O)n1C)-c1ccc(F)cc1C(C)C(=O)N2CC(=O)Nc1ccc(C(F)F)cc1 (stereo not shown) [#256, N-[4-(difluoromethyl)phenyl]-2-(9-fluoro-2,3,7-trimethyl-1,6-dioxo-7H-pyrido[4,3-d][3]benzazepin-5-yl)acetamide]",< 15.8,< 15.8
"Cc1cc2c(n(C)c1=O)-c1cccnc1[C@@H](C)C(=O)N2CC(=O)Nc1ccc(C(F)(F)F)cc1 (single isomer, unassigned) [#208, Enantiomer (10S) or (10R) of N-[4-(trifluoromethyl)phenyl]-2-[3,5,10-trimethyl-4,9-dioxo-3,8,12-triazatricyclo[9.4.0.0^2,7]pentadeca-1(11),2(7),5,12,14-pentaen-8-yl]acetamide]",< 15.8,< 15.8
"Cc1cc2c(c(=O)n1C)-c1cccnc1[C@@H](C)C(=O)N2CC(=O)Nc1ccc(C(F)(F)F)cc1 (single isomer, unassigned) [#178, Enantiomer (10R) or (10S) of N-[4-(trifluoromethyl)phenyl]-2-[4,5,10-trimethyl-3,9-dioxo-4,8,12-triazatricyclo[9.4.0.0^2,7]pentadeca-1(15),2(7),5,11,13-pentaen-8-yl]acetamide]",< 15.8,< 15.8
"Cc1cc2c(cn1)-c1cccc(Cl)c1CC(=O)N2CC(=O)Nc1ccc(C(F)(F)F)cc1 [#31, 2-(8-chloro-3-meth-yl-6-oxo-7H-pyrido [4,3-d][3]benzaze-pin-5-yl)-N-[4-(trifluoromethyl)-phenyl]acetamide]",100 to 501,15.8 to 39.8
"Cc1cc2c(cc1C)N(CC(=O)Nc1ccc(C(F)(F)F)cc1)C(=O)Cc1ncccc1-2 [#23, 2-(9,10-dimethyl-6-oxo-5H-pyrido[2,3-d][1]benzazepin-7-yl)-N-[4-(trifluoromethyl)phenyl]acetamide]",39.8 to 100,15.8 to 39.8

# Results, then the compound that gave them:
IC50 [1] [nM],IC50 [2] [nM],SMILES
15.8 to 39.8,15.8 to 39.8,"COc1cc2c(c(Cl)n1)-c1ccnn1C(C)C(=O)N2CC(=O)Nc1ccc(Cl)c(F)c1 (single isomer, unassigned) [#387, N-(4-chloro-3-fluoro-phenyl)-2-[14-chloro-12-methoxy-7-methyl-8-oxo-5,6,9,13-tetrazatricyclo[8.4.0.0^2,6]tetradeca-1(10),2,4,11,13-pentaen-9-yl]acetamide]"
< 15.8,< 15.8,"COc1cc(F)c2c(c1)N(CC(=O)Nc1ccc(Cl)c(F)c1)C(=O)C(C)c1ncncc1-2 (single isomer, unassigned) [#371, N-(4-chloro-3-fluoro-phenyl)-2-[11-fluoro-9-methoxy-5-methyl-6-oxo-5H-pyrimido[4,5-d][1]benzazepin-7-yl]acetamide]"
15.8 to 39.8,< 15.8,"CC1C(=O)N(CC(=O)Nc2ccc(Cl)c(F)c2)c2cc(Cl)cc(F)c2-c2cnncc21 (single isomer, unassigned) [#385, 2-[9-chloro-11-fluoro-5-methyl-6-oxo-5H-pyridazino[4,5-d][1]benzazepin-7-yl]-N-(4-chloro-3-fluoro-phenyl)acetamide]"
< 15.8,< 15.8,"CC1C(=O)N(CC(=O)Nc2ccc(C(F)F)cc2)c2cc(N3CC(F)(F)C3)nc(F)c2-c2cccnc21 (single isomer, unassigned) [#280, 2-[5-(3,3-difluoroazetidin-1-yl)-3-fluoro-10-methyl-9-oxo-4,8,12-triazatricyclo[9.4.0.0^2,7]pentadeca-1(11),2(7),3,5,12,14-hexaen-8-yl]-N-[4-(difluoromethyl)phenyl]acetamide]"
15.8 to 39.8,15.8 to 39.8,"O=C(CN1C(=O)Cc2ncccc2-c2c1cc(N1CC3(C1)CC3(F)F)nc2F)Nc1ccc(C(F)F)cc1 [#421, 2-[5-(2,2-difluoro-5-azaspiro[2.3]hexan-5-yl)-3-fluoro-9-oxo-4,8,12-triazatricyclo[9.4.0.0^2,7]pentadeca-1(11),2(7),3,5,12,14-hexaen-8-yl]-N-[4-(difluoromethyl)phenyl]acetamide]"
39.8 to 100,100 to 501,"CC1C(=O)N(CC(=O)Nc2ccc(Cl)c(F)c2)c2cc(CN3CC(F)(F)C3)ccc2-c2cccnc21 (stereo not shown) [#344, N-(4-chloro-3-fluoro-phenyl)-2-[9-[(3,3-difluoroazetidin-1-yl)methyl]-5-methyl-6-oxo-5H-pyrido[2,3-d][1]benzazepin-7-yl]acetamide]"
< 15.8,15.8 to 39.8,"CC1C(=O)N(CC(=O)Nc2ccc(Cl)c(F)c2)c2cc(C#N)ccc2-c2cc(F)cnc21 (single isomer, unassigned) [#307, N-(4-chloro-3-fluoro-phenyl)-2-[9-cyano-2-fluoro-5-methyl-6-oxo-5H-pyrido[2,3-d][1]benzazepin-7-yl]acetamid]"
